Test results from PMC8360864, “Benzylmalonyl-CoA dehydrogenase, an enzyme involved in bacterial auxin degradation” (Archives of Microbiology, 2021).

How the values were obtained:
[1] = target: T1, Benzylmalonyl-CoA dehydrogenase (IaaF) (Aromatoleum aromaticum, UniProt Q5P5Z9); test: product formation by HPLC and UV-Vis with purified enzyme; type: biochemical
T1 construct: fusion protein of IaaF with a N-terminal Strep-tag
T1 sequence (Q5P5Z9 1-377): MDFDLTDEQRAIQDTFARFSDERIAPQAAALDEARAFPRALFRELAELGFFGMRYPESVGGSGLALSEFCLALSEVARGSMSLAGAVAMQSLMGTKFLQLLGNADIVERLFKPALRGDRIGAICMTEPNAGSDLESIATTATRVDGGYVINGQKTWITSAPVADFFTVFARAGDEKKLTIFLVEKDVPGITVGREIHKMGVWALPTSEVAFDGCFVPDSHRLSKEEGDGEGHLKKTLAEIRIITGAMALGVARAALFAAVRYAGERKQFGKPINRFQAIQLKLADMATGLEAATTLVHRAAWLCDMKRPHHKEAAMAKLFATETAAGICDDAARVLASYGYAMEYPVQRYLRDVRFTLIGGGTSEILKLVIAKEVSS

purified protein = substrate: CC(C)(COP(=O)(O)OP(=O)(O)OC[C@H]1O[C@@H](n2cnc3c(N)ncnc32)[C@H](O)[C@@H]1OP(=O)(O)O)[C@@H](O)C(=O)NCCC(=O)NCCSC(=O)C(Cc1ccccc1)C(=O)O; test: purified protein; type: biochemical, Aromatoleum aromaticum; conditions: FAD active site (GGG motif replacing YEG) proposed

## CC(C)(COP(=O)(O)OP(=O)(O)OC[C@H]1O[C@@H](n2cnc3c(N)ncnc32)[C@H](O)[C@@H]1OP(=O)(O)O)[C@@H](O)C(=O)NCCC(=O)NCCSC(=O)/C=C/c1ccccc1 [cinnamoyl-CoA]
[1]
  product formation by HPLC and UV-Vis with purified enzyme: formation of a new CoA-thioester over time which was identified as cinnamoyl-CoA by its UV–Vis spectrum

B1: Benzylmalonyl-CoA dehydrogenase (IaaF) (Aromatoleum aromaticum EbN1) (protein)
chain: MDFDLTDEQRAIQDTFARFSDERIAPQAAALDEARAFPRALFRELAELGFFGMRYPESVGGSGLALSEFCLALSEVARGSMSLAGAVAMQSLMGTKFLQLLGNADIVERLFKPALRGDRIGAICMTEPNAGSDLESIATTATRVDGGYVINGQKTWITSAPVADFFTVFARAGDEKKLTIFLVEKDVPGITVGREIHKMGVWALPTSEVAFDGCFVPDSHRLSKEEGDGEGHLKKTLAEIRIITGAMALGVARAALFAAVRYAGERKQFGKPINRFQAIQLKLADMATGLEAATTLVHRAAWLCDMKRPHHKEAAMAKLFATETAAGICDDAARVLASYGYAMEYPVQRYLRDVRFTLIGGGTSEILKLVIAKEVSS
notes: fusion protein of IaaF with a N-terminal Strep-tag
Purified protein
  Km: 1.6 ± 0.3 µM
